Assay results from patent US20150133373A1, “TRANSMUCOSAL DELIVERY OF ENGINEERED POLYPEPTIDES” (priority 2012, published 2015).
Where two headings read alike, the source gives them in different places. No end group written: not given here. *: point of attachment. maleimido‑mono‑amide‑DOTA = O=C(O)CN1CCN(CC(=O)O)CCN(CC(=O)NCCN2C(=O)CC(*)C2=O)CCN(CC(=O)O)CC1

How the values were obtained:
[1] = Stability in a pancreatin enzyme mixture; assay type: in vitro ADME; details: isolated enzyme pancreatin
[2] = system: IgG molecules present in normal human sera; assay: Serum response analysis (ELISA, IgG binding to albumin binding polypeptides)
Experimental: Each serum sample was tested as a singlet.

[3] = system: CD3+CD4+ T cells (PBMC from 52 human Caucasian individuals)
Pancreatin = assay: Stability in a pancreatin enzyme mixture; assay type: in vitro ADME; details: pH 6.8
NIH/Swiss mice = assay: OGTT DOA (oral glucose tolerance test for duration of action) in NIH/Swiss mice; assay type: in vivo, mouse; details: for activity in OGTT DOA when dosed 24 hours before the glucose gavage (in words): dosed at t-24 hours; for % Glucose Lowering Compared to Vehicle: Table 6, 25 nmol/kg IP at t=−1 day, blood glucose at 30 min after glucose gavage ([…]), 4 hr fasted NIH/Swiss female mice
[4] = Melting temperature (Tm) by circular dichroism; assay type: physicochemical; details: CD at 221 nm, 20° to 90° C., 1×PBS, 0.4-0.5 mg/ml
Experimental: Purified albumin binding polypeptide variants were diluted in 1×PBS, to final concentrations between 0.4 and 0.5 mg/ml. Circular dichroism (CD) analysis was performed on a Jasco J-810 spectropolarimeter in a cell with an optical path-length of 1 mm. In the variable temperature measurements, the […] was measured at 221 nm from 20° to 90° C., with a temperature slope of 5° C./min.
The melting temperatures (Tm) of the different albumin binding polypeptide variants were calculated by determining the midpoint of the transition in the CD vs. temperature plot.

C57BL6 female mice = assay: Kidney vacuolization (cytoplasmic vacuolation of renal cortical tubular epithelial cells); assay type: in vivo, mouse; details: Example 32; sc injection on days 0-6, kidneys on day 7
Experimental: (§1) With some drugs, such as some pegylated proteins, undesirable vacuoles can form in cytoplasm of epithelial cells lining the proximal convoluted tubules, which is an undesirable toxicity measure. […] C57BL6 female mice (n=2 cages, 3 mice/cage) were weighed daily 3 hours prior to lights out Immediately after weighing, on days 0-6 mice were injected subcutaneously with test compound. Mice were sacrificed on day 7 and kidneys submitted for histopathology. […] A positive control compound known to cause vacuole formation was scored as 3. The ABD polypeptide itself scored 0.
as §1, with “3.” for “3. The ABD polypeptide itself scored 0.”

GLP-1 receptor = molecular target: T1, GLP-1 receptor (Rattus norvegicus, UniProt P32301); assay: GLP-1 receptor functional activity (cAMP induction, HTRF cell-based assay, 6-23 (clone 6) cells)
T1 construct: cells that endogenously express GLP-1R; host or cells: rat thyroid carcinoma 6-23 (clone 6) cells
T1 sequence (P32301 22-463): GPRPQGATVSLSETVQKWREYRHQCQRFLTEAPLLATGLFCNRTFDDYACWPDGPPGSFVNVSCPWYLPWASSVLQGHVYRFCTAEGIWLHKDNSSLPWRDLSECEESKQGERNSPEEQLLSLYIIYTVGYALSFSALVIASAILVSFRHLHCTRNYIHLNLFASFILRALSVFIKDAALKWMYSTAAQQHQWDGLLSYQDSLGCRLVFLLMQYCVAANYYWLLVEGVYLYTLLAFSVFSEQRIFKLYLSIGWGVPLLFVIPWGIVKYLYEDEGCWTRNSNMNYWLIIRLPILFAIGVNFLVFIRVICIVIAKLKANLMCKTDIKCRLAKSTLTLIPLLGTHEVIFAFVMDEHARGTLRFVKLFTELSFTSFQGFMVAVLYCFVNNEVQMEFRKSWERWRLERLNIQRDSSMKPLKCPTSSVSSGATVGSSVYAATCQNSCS

CC[C@H](C)[C@H](NC(=O)[C@H](Cc1ccccc1)NC(=O)[C@H](CCC(=O)O)NC(=O)[C@H](CCCCN)NC(=O)[C@H](C)NC(=O)[C@H](C)NC(=O)[C@H](CCC(N)=O)NC(=O)CNC(=O)[C@H](CCC(=O)O)NC(=O)[C@H](CC(C)C)NC(=O)[C@H](Cc1ccc(O)cc1)NC(=O)[C@H](CO)NC(=O)[C@H](CO)NC(=O)[C@@H](NC(=O)[C@H](CC(=O)O)NC(=O)[C@H](CO)NC(=O)[C@@H](NC(=O)[C@H](Cc1ccccc1)NC(=O)[C@@H](NC(=O)CNC(=O)[C@H](CCC(=O)O)NC(=O)[C@H](C)NC(=O)[C@@H](N)Cc1c[nH]cn1)[C@@H](C)O)[C@@H](C)O)C(C)C)C(=O)N[C@@H](C)C(=O)N[C@@H](Cc1c[nH]c2ccccc12)C(=O)N[C@@H](CC(C)C)C(=O)N[C@H](C(=O)N[C@@H](CCCCN)C(=O)NCC(=O)N[C@@H](CCCNC(=N)N)C(N)=O)C(C)C [GLP-1 (7-36) (Human)]
remaining at 0.5 h, 30 micromolar ([1]; pancreatin enzyme mixture, 50 mM phosphate buffer pH 6.8, 37° C., 30 minutes, read-out: Percent Remaining at 30 minutes): 39%
remaining at 1 h, 30 micromolar ([1]; pancreatin enzyme mixture, 50 mM phosphate buffer pH 6.8, 37° C., 60 minutes, read-out: Percent Remaining at 60 minutes): 24%

CC[C@H](C)[C@H](NC(=O)[C@H](C)NC(=O)[C@H](CC(=O)O)NC(=O)[C@H](CCCCN)NC(=O)[C@H](CC(C)C)NC(=O)[C@H](C)NC(=O)[C@H](CCC(=O)O)NC(=O)[C@@H](NC(=O)CNC(=O)[C@H](CCC(=O)O)NC(=O)[C@@H](NC(=O)[C@@H](NC(=O)[C@H](CCCCN)NC(=O)[C@H](C)NC(=O)[C@H](CCCCN)NC(=O)[C@H](CC(=O)O)NC(=O)[C@@H](NC(=O)[C@H](CC(C)C)NC(=O)[C@H](CCCNC(=N)N)NC(=O)[C@H](CCCCN)NC(=O)[C@H](Cc1ccc(O)cc1)NC(=O)[C@H](Cc1ccccc1)NC(=O)[C@H](CC(=O)O)NC(=O)[C@H](CO)NC(=O)[C@@H](NC(=O)CNC(=O)[C@H](Cc1ccc(O)cc1)NC(=O)[C@H](CSC1CC(=O)N(CCNC(=O)CN2CCN(CC(=O)O)CCN(CC(=O)O)CCN(CC(=O)O)CC2)C1=O)NC(=O)[C@H](CC(=O)O)NC(=O)[C@H](CC(C)C)NC(=O)[C@H](CCC(=O)O)NC(=O)[C@H](C)NC(=O)[C@H](CC(N)=O)NC(=O)[C@H](C)NC(=O)[C@H](C)NC(=O)[C@H](CCC(=O)O)NC(=O)[C@H](CCCCN)NC(=O)[C@H](C)NC(=O)[C@H](CO)NC(=O)[C@H](C)NC(=O)[C@H](CC(C)C)NC(=O)CN)C(C)C)[C@@H](C)CC)[C@@H](C)O)C(C)C)C(C)C)C(=O)N[C@@H](CC(C)C)C(=O)N[C@@H](C)C(=O)N[C@@H](C)C(=O)N[C@@H](CC(C)C)C(=O)N1CCC[C@H]1C(=O)O (stereo partly drawn) [PEP07968]
reactivity with IgG of human sera (in words) [2]: least reactivity
immunogenicity classification (in words) [3]: non-immunogenic
number of responding individuals as compared to buffer only [3]: 1

CCCCCCCCCCCCCCCC(=O)N[C@@H](CCC(=O)NCCCC[C@H](NC(=O)[C@H](C)NC(=O)[C@H](C)NC(=O)[C@H](CCC(N)=O)NC(=O)CNC(=O)[C@H](CCC(=O)O)NC(=O)[C@H](CC(C)C)NC(=O)[C@H](Cc1ccc(O)cc1)NC(=O)[C@H](CO)NC(=O)[C@H](CO)NC(=O)[C@@H](NC(=O)[C@H](CC(=O)O)NC(=O)[C@H](CO)NC(=O)[C@@H](NC(=O)[C@H](Cc1ccccc1)NC(=O)[C@@H](NC(=O)CNC(=O)[C@H](CCC(=O)O)NC(=O)[C@H](C)NC(=O)[C@@H](N)Cc1cnc[nH]1)[C@@H](C)O)[C@@H](C)O)C(C)C)C(=O)N[C@@H](CCC(=O)O)C(=O)N[C@@H](Cc1ccccc1)C(=O)N[C@H](C(=O)N[C@@H](C)C(=O)N[C@@H](Cc1c[nH]c2ccccc12)C(=O)N[C@@H](CC(C)C)C(=O)N[C@H](C(=O)N[C@@H](CCCNC(=N)N)C(=O)NCC(=O)N[C@@H](CCCNC(=N)N)C(=O)NCC(=O)O)C(C)C)[C@@H](C)CC)C(=O)O [liraglutide, [N-epsilon-(gamma-Glu(N-alpha-hexadecanoyl))-Lys26,Arg34]-GLP-1-(7-37)-acid]
susceptibility to pancreatic enzymes (in words) (Pancreatin): relatively resistant to pancreatic enzymes
remaining at 0.5 h, 30 micromolar ([1]; pH 6.8): 100%
remaining at 1 h, 30 micromolar ([1]; pH 6.8): 100%

GSLAEAKEAANAELDSYGVSDFYKRLIDKAKTVEGVEALKDAILAALP [PEP07986]
activity in OGTT DOA when dosed 24 hours before the glucose gavage (in words) (NIH/Swiss mice): inactive

GSSLASAKEAANAELDSYGVSDFYKRLIDKAKTVEGVEALKDAILAALP [PEP07554]
reactivity with IgG of human sera (in words) [2]: least reactivity
Tm [4]: 58 °C

HGEGTFTSDLSKQLEEEAVRLFIEWLKNGGPSSGAPPKSTGGGGSASGSLAEAKEAANAELDSYGVSDFYKRLIDKAKTVEGVEALKDAILAALP [Cmpd 2-6]
Percent glucose lowering compared to vehicle (NIH/Swiss mice; Table 17, 25 nmol/Kg, OGTT at 24 hours post drug administration, 30 minutes post gavage): −22%

HGEGTFTSDLSKQLEEEAVRLFIEWLKQGGPSKEIISGGSLAEAKVLANRELDKYGVSDFYKRLINKAKTVEGVEALKLHILAALP [Cmpd 33]
% Glucose Lowering Compared to Vehicle (NIH/Swiss mice): −19%

HGEGTFTSDLSKQLEEEAVRLFIEWLKQGGPSKEIISTGGGGSASGSLAEAKEAANAELDSYGVSDFYKRLIDKAKTVEGVEALKDAILAALP [Cmpd 2-5]
Severity score for cytoplasmic vacuolation of renal cortical tubular epithelial cells (C57BL6 female mice): 0

HGEGTFTSDLSKQLEEEAVRLFIEWLKQGGPSKEIISTGGGGSGGGSGGGSGGGSASLAEAKVLANRELDKYGVSDFYKRLINKAKTVEGVEALKLHILAALP [Cmpd 8]
% Glucose Lowering Compared to Vehicle (NIH/Swiss mice): −21%

HGEGTFTSDLSKQMEEEAVRLFIEWLKNGGSLAEAKVLANRELDKYGVSDFYKRLINKAKTVEGVEALKLHILAALP [Cmpd 32]
activity in OGTT DOA when dosed 24 hours before the glucose gavage (in words) (NIH/Swiss mice): no glucose lowering

HGEGTFTSDLSKQMEEEAVRLFIEWLKNTGGGGSASLAEAKVLANRELDKYGVSDFYKRLINKAKTVEGVEALKLHILAALP [Cmpd 10]
% Glucose Lowering Compared to Vehicle (NIH/Swiss mice): −22%

PEP07975: DOTA-conjugated PEP07834, SEQ ID NO:460, via Cys14 with maleimido-mono-amide-DOTA; amidated at the C-terminus (ALASAKEAANAELDC(maleimido‑mono‑amide‑DOTA)YGVSDFYKRLIDKAKTVEGVEALKDAILAALP-NH2)
Tm [4]: 50 °C

TT: tetanus toxoid (TT, Statens Serum Institut), positive control [reference compound]
number of responding individuals as compared to buffer only ([3]; 52 donors): 49

B1: HGEGTFTSDLSKQLEEEAVRLFIEWLKNTGGGGSASGSLAEAKEAANAELDSYGVSDFYKRLIDKAKTVEGVEALKDAILAALP (protein)
chain: HGEGTFTSDLSKQLEEEAVRLFIEWLKNTGGGGSASGSLAEAKEAANAELDSYGVSDFYKRLIDKAKTVEGVEALKDAILAALP
activity in OGTT DOA when dosed 24 hours before the glucose gavage (in words) (NIH/Swiss mice): did not display 24 h duration
in vitro GLP-1 receptor functional activity (in words) (GLP-1 receptor): active in vitro against the GLP-1 receptor
